Test results as given in PMC6753678, “Fueling Open Innovation for Malaria Transmission-Blocking Drugs: Hundreds of Molecules Targeting Early Parasite Mosquito Stages” (Frontiers in Microbiology, 2019).
Where two headings read alike, the source gives them in different places.

How the values were obtained:
HepG2 cells [1] = test: HepG2 cytotoxicity assay
In short: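 Percent inhibition derived from fluorescent viability readout, normalised to DMSO (negative) and 50 μM doxorubicin (positive). Compound incubation lasted 48 h at 37°C, 5% CO2, with 2,500 HepG2 cells/well in MEM plus 10% FBS and 1% NEAA.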

[2] = tested on: P. falciparum late stage (stages IV-V) gametocytes; parameters: method as in Almela et al 2016; conditions: ref Almela et al 2016, read-out: Pf GCT ATP IC50, cited from earlier work
[3] = tested on: P. falciparum female gametocytes; parameters: method as in Miguel-Blanco et al 2017; conditions: ref Miguel-Blanco et al 2017, read-out: Pf FGAA IC50, cited from earlier work
HepG2 cells [4] = conditions: cited from earlier work
[5] = tested on: P. falciparum female gametocytes; test: P. falciparum female gametogenesis assay (Pf FGAA); conditions: 1: YES; 0: NO
[6] = tested on: P. falciparum late stage (stages IV-V) gametocytes; test: P. falciparum late stage gametocyte ATP depletion assay (Pf GC-ATP); conditions: 1: YES; 0: NO
[7] = HepG2 cytotoxicity unified across the three screens
[8] = value reported with the Pf FGAA screen, ref Miguel-Blanco et al 2017
[9] = value reported with the Pf GCT ATP screen, ref Almela et al 2016
[10] = HepG2 values of the three screens unified

Structure (SMILES) | Unified cytotox (HepG2 cells [1]; [7]) | IC50 ([2]; TCAMS screen comparison) | IC50 ([3]; TCAMS screen comparison) | HepG2 cytoxicity (HepG2 cells [4]; [8]) | HepG2 cytoxicity (HepG2 cells [4]; [9]) | Is compound selective in assay? Pf FGAA active? [5] | Is compound selective in assay? Pf GC-ATP active? [6] | Unified cytotox (HepG2 cells [1]; [10]) | IC50 [2] | IC50 [3] | HepG2 cytoxicity (Pf GCT ATP screen) (HepG2 cells [4]; ref Almela et al 2016) | HepG2 cytoxicity (Pf FGAA screen) (HepG2 cells [4]; ref Miguel-Blanco et al 2017)
C#CCOc1ccc2ccccc2c1CNCCCCCCNCc1c(OCC#C)ccc2ccccc12.CS(=O)(=O)O [TCMDC-137838] | 3.05 µM | 500 nM | 1050 nM | 2.92 µM | 3.19 µM | 0 (0: NO) | 0 (0: NO) | – | – | – | – | –
COc1cc2ccccc2c(OC)c1CCNCCCCNCCc1c(OC)cc2ccccc2c1OC.CS(=O)(=O)O [TCMDC-137842] | – | – | – | – | – | 0 (0: NO) | 1 (1: YES) | 3.68 µM | 310 nM | 1240 nM | 3.2 µM | 4.17 µM
CCCCOc1cc(OC)c2ccccc2c1CCNCCCCNCCc1c(OCCCC)cc(OC)c2ccccc12.CS(=O)(=O)O [TCMDC-137845] | – | – | – | – | – | 0 (0: NO) | 0 (0: NO) | 2.49 µM | 500 nM | 760 nM | 3 µM | 1.97 µM
CCCCOc1c(CCNCCCCNCCc2cc(OC)c3ccccc3c2OCCCC)cc(OC)c2ccccc12.CS(=O)(=O)O [TCMDC-137848] | – | – | – | – | – | 0 (0: NO) | 1 (1: YES) | 2.54 µM | 80 nM | 610 nM | 3.1 µM | 1.97 µM
CS(=O)(=O)O.FC(F)(F)COc1ccc(CNCCCCCCNCc2ccc(OCC(F)(F)F)c3ccccc23)c2ccccc12 [TCMDC-137853] | 2.73 µM | 55 nM | 630 nM | 2.46 µM | 3 µM | 0 (0: NO) | 1 (1: YES) | – | – | – | – | –
COc1c(CCNCCCCNCCc2cc(Cl)c3ccccc3c2OC)cc(Cl)c2ccccc12.CS(=O)(=O)O [TCMDC-137869] | – | – | – | – | – | 0 (0: NO) | 1 (1: YES) | 2.57 µM | 80 nM | 330 nM | 3.36 µM | 1.78 µM
CN(CCCNCc1ccc2ccccc2c1)CCCNCc1ccc2ccccc2c1.Cl [TCMDC-137908] | – | – | – | – | – | 1 (1: YES) | 1 (1: YES) | 4.85 µM | 50 nM | 90 nM | 4.68 µM | 5.01 µM
COc1ccc2ccccc2c1CNCCCCCCNCc1c(OC)ccc2ccccc12.Cl [TCMDC-137915] | – | – | – | – | – | 0 (0: NO) | 1 (1: YES) | 3.90 µM | 250 nM | 700 nM | 3.59 µM | 4.22 µM
COc1ccc2c(c1)CC(C)(C)NC2CCCCCCCCC1NC(C)(C)Cc2cc(OC)ccc21.O=C(O)C(=O)O (stereo not shown) [TCMDC-137935] | 5.47 µM | 790 nM | 1470 nM | 5.62 µM | 5.32 µM | 0 (0: NO) | 0 (0: NO) | – | – | – | – | –
CCOc1cc(CNCCCCCCNCc2cc(OCC)c(OCC)c3ccccc23)c2ccccc2c1OCC.CS(=O)(=O)O [TCMDC-137939] | – | – | – | – | – | 0 (0: NO) | 0 (0: NO) | 2.35 µM | 750 nM | 1780 nM | 2.7 µM | 2.00 µM
COc1cc2ccccc2cc1CCNCCCCNCCc1cc2ccccc2cc1OC.CS(=O)(=O)O [TCMDC-137944] | 2.53 µM | 110 nM | 620 nM | 1.66 µM | 3.39 µM | 0 (0: NO) | 1 (1: YES) | – | – | – | – | –
CCCOc1ccc(CCNCCCCNCCc2ccc(OCCC)c3ccccc23)c2ccccc12.CS(=O)(=O)O [TCMDC-137952] | 2.38 µM | 80 nM | 610 nM | 2.16 µM | 2.6 µM | 0 (0: NO) | 1 (1: YES) | – | – | – | – | –
COc1ccc2c(OC)c(CNCCCCCCNCc3ccc4cc(OC)ccc4c3OC)ccc2c1.CS(=O)(=O)O [TCMDC-137953] | 2.66 µM | 1540 nM | 1000 nM | 2.11 µM | 3.2 µM | 0 (0: NO) | 0 (0: NO) | – | – | – | – | –
CCCCCCOc1ccc2ccccc2c1CNCCCCCCNCc1c(OCCCCCC)ccc2ccccc12.CS(=O)(=O)O [TCMDC-137963] | 2.85 µM | 480 nM | 1500 nM | 2.40 µM | 3.3 µM | 0 (0: NO) | 0 (0: NO) | – | – | – | – | –
CC(C)Oc1ccc2ccccc2c1CNCCCCCCNCc1c(OC(C)C)ccc2ccccc12.CS(=O)(=O)O [TCMDC-137965] | 2.14 µM | 140 nM | 950 nM | 1.91 µM | 2.38 µM | 0 (0: NO) | 1 (1: YES) | – | – | – | – | –
CCCOc1ccc2ccccc2c1CNCCCCCCNCc1c(OCCC)ccc2ccccc12.CS(=O)(=O)O [TCMDC-137966] | 2.55 µM | 340 nM | 1030 nM | 2.00 µM | 3.1 µM | 0 (0: NO) | 0 (0: NO) | – | – | – | – | –
CC(C)COc1ccc2ccccc2c1CNCCCCCCNCc1c(OCC(C)C)ccc2ccccc12.CS(=O)(=O)O [TCMDC-137972] | 2.03 µM | 100 nM | 810 nM | 2.19 µM | 1.88 µM | 0 (0: NO) | 1 (1: YES) | – | – | – | – | –
CC(C)(C)c1ccc(-c2cc3c(ccc4nc(N)nc(N)c43)[nH]2)cc1 [TCMDC-137977] | 2.56 µM | 550 nM | 770 nM | 1.86 µM | 3.26 µM | 0 (0: NO) | 0 (0: NO) | – | – | – | – | –
CC(C)(C)c1ccc(-c2nc3c(ccc4nc(N)nc(N)c43)[nH]2)cc1.Cl [TCMDC-137984] | 2.98 µM | 210 nM | 260 nM | 2.12 µM | 3.85 µM | 1 (1: YES) | 1 (1: YES) | – | – | – | – | –
